Assay results from PubChem BioAssay AID1919002 (Molecular Pharmacology Branch, DTP, NCI, 2023).

System: 743489-274-T-PDC complex spheroid growth
Assay: Anticancer human tumor 743489-274-T-PDC patient-derived renal cell carcinoma cell line growth inhibition [AhR]
Settings: for viability, T/C: stronger effect = lower value
In short: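 Agents were dosed in half-log steps down from roughly clinical Cmax, or from 10 microM where Cmax was unknown, alone and with AhR antagonists. Read-out: percent test/control growth of tumor spheroids containing HUVEC and MSC stromal cells.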

[1] = curve of first compound, second compound 0.1 µM
[2] = curve of first compound, second compound 0.316 µM
[3] = curve of first compound, second compound 1 µM
[4] = curve of first compound, second compound 3.16 µM
[5] = curve of first compound, second compound 10 µM
[6] = second compound 0.1 µM, first compound 0.0316 µM
[7] = second compound 0.1 µM, first compound 0.1 µM
[8] = second compound 0.316 µM, first compound 0.0316 µM
[9] = second compound 0.316 µM, first compound 0.1 µM
[10] = second compound 1 µM, first compound 0.0316 µM
[11] = second compound 1 µM, first compound 0.1 µM
[12] = second compound 3.16 µM, first compound 0.0316 µM
[13] = second compound 3.16 µM, first compound 0.1 µM
[14] = second compound 10 µM, first compound 0.0316 µM
[15] = second compound 10 µM, first compound 0.1 µM
[16] = second compound 0.1 µM, first compound 0.316 µM
[17] = second compound 0.1 µM, first compound 1 µM
[18] = second compound 0.1 µM, first compound 3.16 µM
[19] = second compound 0.1 µM, first compound 10 µM
[20] = second compound 0.316 µM, first compound 0.316 µM
[21] = second compound 0.316 µM, first compound 1 µM
[22] = second compound 0.316 µM, first compound 3.16 µM
[23] = second compound 0.316 µM, first compound 10 µM
[24] = second compound 1 µM, first compound 0.316 µM
[25] = second compound 1 µM, first compound 1 µM
[26] = second compound 1 µM, first compound 3.16 µM
[27] = second compound 1 µM, first compound 10 µM
[28] = second compound 3.16 µM, first compound 0.316 µM
[29] = second compound 3.16 µM, first compound 1 µM
[30] = second compound 3.16 µM, first compound 3.16 µM
[31] = second compound 3.16 µM, first compound 10 µM
[32] = second compound 10 µM, first compound 0.316 µM
[33] = second compound 10 µM, first compound 1 µM
[34] = second compound 10 µM, first compound 3.16 µM
[35] = second compound 10 µM, first compound 10 µM
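Also: spheroids exposed to agents for 7 days before readout.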
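For viability, T/C in this document: 100% = DMSO vehicle control wells.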

With `CC[C@@]1(O)C(=O)OCc2c1cc1n(c2=O)Cc2cc3c(CN(C)C)c(O)ccc3nc2-1` + Cc1ccccc1N=Nc1ccc(NC(=O)c2ccnn2C)c(C)c1 the IC50 [1] was > 0.1 µM, the IC50 [2] was > 0.1 µM and the IC50 [3] was > 0.1 µM. For the same compound, the IC50 [4] was > 0.1 µM, the IC50 [5] was > 0.1 µM and the viability, T/C (second compound 0.1 µM, first compound 0.000316 µM) was 98.8%. It also gave a viability, T/C (second compound 0.1 µM, first compound 0.001 µM) of 98.7%, a viability, T/C (second compound 0.1 µM, first compound 0.00316 µM) of 111% and a viability, T/C (second compound 0.1 µM, first compound 0.01 µM) of 95.8%. For the same compound, the viability, T/C [6] was 89.3%, the viability, T/C [7] was 80.9% and the viability, T/C (second compound 0.316 µM, first compound 0.000316 µM) was 98.2%. The viability, T/C (second compound 0.316 µM, first compound 0.001 µM) was 105%, the viability, T/C (second compound 0.316 µM, first compound 0.00316 µM) was 106% and the viability, T/C (second compound 0.316 µM, first compound 0.01 µM) was 96.6%. The viability, T/C [8] was 89.3%, the viability, T/C [9] was 85.9% and the viability, T/C (second compound 1 µM, first compound 0.000316 µM) was 89.1%. The viability, T/C (second compound 1 µM, first compound 0.001 µM) was 94%, the viability, T/C (second compound 1 µM, first compound 0.00316 µM) was 92.6% and the viability, T/C (second compound 1 µM, first compound 0.01 µM) was 81.1%. The viability, T/C [10] was 87%, the viability, T/C [11] was 77.4% and the viability, T/C (second compound 3.16 µM, first compound 0.000316 µM) was 87.4%. For the same compound, the viability, T/C (second compound 3.16 µM, first compound 0.001 µM) was 81.2%, the viability, T/C (second compound 3.16 µM, first compound 0.00316 µM) was 93.3% and the viability, T/C (second compound 3.16 µM, first compound 0.01 µM) was 90.4%. The viability, T/C [12] was 90.4%, the viability, T/C [13] was 79.9% and the viability, T/C (second compound 10 µM, first compound 0.000316 µM) was 88.9%. It also gave a viability, T/C (second compound 10 µM, first compound 0.001 µM) of 80.7%, a viability, T/C (second compound 10 µM, first compound 0.00316 µM) of 87.4% and a viability, T/C (second compound 10 µM, first compound 0.01 µM) of 86.2%. It also gave a viability, T/C [14] of 80.7% and a viability, T/C [15] of 63.5%.

`Nc1ccccc1NC(=O)c1ccc(CNC(=O)OCc2cccnc2)cc1` + Cc1cncc(-c2nc(NCCc3c[nH]c4ccccc34)c3ncn(C(C)C)c3n2)c1 gave an IC50 [1] of 4.64 µM, an IC50 [2] of 3.12 µM and an IC50 [3] of 2.4 µM. It also gave an IC50 [4] of 6.83 µM, an IC50 [5] of 9.62 µM and a viability, T/C [6] of 104%. It also gave a viability, T/C [7] of 92.7%, a viability, T/C [16] of 86.5% and a viability, T/C [17] of 77.7%. The viability, T/C [18] was 54.2%, the viability, T/C [19] was 36.6% and the viability, T/C [8] was 92.2%. The viability, T/C [9] was 93.1%, the viability, T/C [20] was 89.4% and the viability, T/C [21] was 74%. For the same compound, the viability, T/C [22] was 50.1%, the viability, T/C [23] was 36.3% and the viability, T/C [10] was 88.5%. For the same compound, the viability, T/C [11] was 84.1%, the viability, T/C [24] was 87.2% and the viability, T/C [25] was 73.8%. It also gave a viability, T/C [26] of 42.5%, a viability, T/C [27] of 29.9% and a viability, T/C [12] of 95.5%. For the same compound, the viability, T/C [13] was 91.5%, the viability, T/C [28] was 88.7% and the viability, T/C [29] was 78.5%. The viability, T/C [30] was 61.3%, the viability, T/C [31] was 44.3% and the viability, T/C [14] was 102%. For the same compound, the viability, T/C [15] was 102%, the viability, T/C [32] was 106% and the viability, T/C [33] was 91.3%. It also gave a viability, T/C [34] of 84.6% and a viability, T/C [35] of 48.2%.

With `Nc1ncn(C2CC(O)C(CO)S2)c(=O)n1` (configuration not stated) + Cc1ccccc1N=Nc1ccc(NC(=O)c2ccnn2C)c(C)c1 the IC50 [1] was > 0.3 µM, the IC50 [2] was > 0.3 µM and the IC50 [3] was > 0.3 µM. The IC50 [4] was > 0.3 µM, the IC50 [5] was > 0.3 µM and the viability, T/C (second compound 0.1 µM, first compound 0.000949 µM) was 102%. It also gave a viability, T/C (second compound 0.1 µM, first compound 0.003 µM) of 87.6%, a viability, T/C (second compound 0.1 µM, first compound 0.00949 µM) of 82.9% and a viability, T/C (second compound 0.1 µM, first compound 0.03 µM) of 71.4%. It also gave a viability, T/C (second compound 0.1 µM, first compound 0.0949 µM) of 85.5%, a viability, T/C (second compound 0.1 µM, first compound 0.3 µM) of 75.5% and a viability, T/C (second compound 0.316 µM, first compound 0.000949 µM) of 85.5%. For the same compound, the viability, T/C (second compound 0.316 µM, first compound 0.003 µM) was 81.7%, the viability, T/C (second compound 0.316 µM, first compound 0.00949 µM) was 80.4% and the viability, T/C (second compound 0.316 µM, first compound 0.03 µM) was 81.7%. It also gave a viability, T/C (second compound 0.316 µM, first compound 0.0949 µM) of 87.2%, a viability, T/C (second compound 0.316 µM, first compound 0.3 µM) of 74.7% and a viability, T/C (second compound 1 µM, first compound 0.000949 µM) of 85.7%. It also gave a viability, T/C (second compound 1 µM, first compound 0.003 µM) of 84.4%, a viability, T/C (second compound 1 µM, first compound 0.00949 µM) of 86.3% and a viability, T/C (second compound 1 µM, first compound 0.03 µM) of 78.3%. The viability, T/C (second compound 1 µM, first compound 0.0949 µM) was 80.4%, the viability, T/C (second compound 1 µM, first compound 0.3 µM) was 85.4% and the viability, T/C (second compound 3.16 µM, first compound 0.000949 µM) was 83.4%. It also gave a viability, T/C (second compound 3.16 µM, first compound 0.003 µM) of 83.2%, a viability, T/C (second compound 3.16 µM, first compound 0.00949 µM) of 83.1% and a viability, T/C (second compound 3.16 µM, first compound 0.03 µM) of 87%. It also gave a viability, T/C (second compound 3.16 µM, first compound 0.0949 µM) of 82.4%, a viability, T/C (second compound 3.16 µM, first compound 0.3 µM) of 79.3% and a viability, T/C (second compound 10 µM, first compound 0.000949 µM) of 76%. It also gave a viability, T/C (second compound 10 µM, first compound 0.003 µM) of 69.9%, a viability, T/C (second compound 10 µM, first compound 0.00949 µM) of 92.1% and a viability, T/C (second compound 10 µM, first compound 0.03 µM) of 81.2%. For the same compound, the viability, T/C (second compound 10 µM, first compound 0.0949 µM) was 83.3% and the viability, T/C (second compound 10 µM, first compound 0.3 µM) was 76.5%.

For `Nc1ccn(C2OC(CO)C(O)C2(F)F)c(=O)n1` (configuration not stated) + Cc1ccccc1N=Nc1ccc(NC(=O)c2ccnn2C)c(C)c1, the IC50 [1] was > 10 µM, the IC50 [2] was > 10 µM and the IC50 [3] was 9.15 µM. The IC50 [4] was 1.48 µM, the IC50 [5] was > 10 µM and the viability, T/C [6] was 65%. It also gave a viability, T/C [7] of 62.7%, a viability, T/C [16] of 54.7% and a viability, T/C [17] of 63.4%. For the same compound, the viability, T/C [18] was 57.1%, the viability, T/C [19] was 59.1% and the viability, T/C [8] was 66.4%. For the same compound, the viability, T/C [9] was 62%, the viability, T/C [20] was 56.5% and the viability, T/C [21] was 59.4%. For the same compound, the viability, T/C [22] was 54.8%, the viability, T/C [23] was 53.1% and the viability, T/C [10] was 61%. It also gave a viability, T/C [11] of 57.4%, a viability, T/C [24] of 65.6% and a viability, T/C [25] of 56.7%. It also gave a viability, T/C [26] of 51.2%, a viability, T/C [27] of 50.8% and a viability, T/C [12] of 68.1%. It also gave a viability, T/C [13] of 55.8%, a viability, T/C [28] of 51.9% and a viability, T/C [29] of 45.5%. For the same compound, the viability, T/C [30] was 50.8%, the viability, T/C [31] was 52.3% and the viability, T/C [14] was 69.9%. For the same compound, the viability, T/C [15] was 56.9%, the viability, T/C [32] was 51.4% and the viability, T/C [33] was 60.6%. For the same compound, the viability, T/C [34] was 47.8% and the viability, T/C [35] was 55.4%.

In the case of `CC(CO)NC(=O)c1cc(-c2ccc(Cl)cc2)nn(-c2cnn(C)c2)c1=O` (configuration not stated), the viability, T/C (compound 0.316 µM) is reported as 90% [middle of 21 runs] and the IC50 (compound alone, run of 08/08/2022) is reported as > 10 µM.

`COc1cc(Nc2ncc3c(n2)-c2ccc(Cl)cc2C(c2c(F)cccc2OC)=NC3)ccc1C(=O)O` + CC(CO)NC(=O)c1cc(-c2ccc(Cl)cc2)nn(-c2cnn(C)c2)c1=O was tested, and the IC50 [1] was > 10 µM, the IC50 [2] was > 10 µM and the IC50 [3] was > 10 µM. For the same compound, the IC50 [4] was > 10 µM, the IC50 [5] was > 10 µM and the viability, T/C [6] was 96.9%. It also gave a viability, T/C [7] of 95.2%, a viability, T/C [16] of 91.4% and a viability, T/C [17] of 84.4%. The viability, T/C [18] was 86.4%, the viability, T/C [19] was 88.9% and the viability, T/C [8] was 98.7%. It also gave a viability, T/C [9] of 90.3%, a viability, T/C [20] of 91.3% and a viability, T/C [21] of 86.6%. For the same compound, the viability, T/C [22] was 93.5%, the viability, T/C [23] was 85.5% and the viability, T/C [10] was 90.6%. It also gave a viability, T/C [11] of 97.3%, a viability, T/C [24] of 95.5% and a viability, T/C [25] of 76.4%. It also gave a viability, T/C [26] of 87.9%, a viability, T/C [27] of 87.3% and a viability, T/C [12] of 101%. The viability, T/C [13] was 104%, the viability, T/C [28] was 95.2% and the viability, T/C [29] was 85.7%. It also gave a viability, T/C [30] of 82%, a viability, T/C [31] of 84.9% and a viability, T/C [14] of 91.2%. For the same compound, the viability, T/C [15] was 102%, the viability, T/C [32] was 86.9% and the viability, T/C [33] was 93.9%. It also gave a viability, T/C [34] of 88.6% and a viability, T/C [35] of 94.5%.
